Assay results from patent US11472769B2, “SSAO inhibitors and use thereof” (Eccogene (Shanghai) Co., Ltd., priority 2019, dated 2022).
pIC50: −log10 of the molar value.

Key:
Format in all cases: biochemical
recombinant hSSAO = recombinant hSSAO (Homo sapiens (Human), UniProt Q16853); experiment: SSAO Activity Assay (MAO-Glo assay kit); conditions: 40 μM substrate, 30 mins pre-incubation
Experimental: (§1) The biological activities of the compounds of the present application can be assessed with methods and assays known in the art. For example, the potency of the compounds of the present application can be evaluated with an SSAO Activity Assay. Briefly, compounds of the present application can be applied to recombinant hSSAO, hMAO-A, and hMAO-B isoforms and the amine oxidase activity of the enzymes are measured after the addition and subsequent oxidation of the luminogenic substrate (e.g., with the MAO-Glo assay kit from Promega). The IC50 can be calculated, for example, by fitting the dose response curve using a 4-parameter non-linear regression routine.
(§2) Amine oxidase activity of recombinant hSSAO, hMAO-A, and hMAO-B isoforms are measured using the MAO-Glo assay kit (Promega, V1402). Ten nL test compounds (with DMSO as vehicle, 0.1% v/v for hSSAO, hMAO-A and hMAO-B) were added into assay plates by Echo, and pre-incubated with 5 μL of enzyme for 30 mins at room temperature before the addition of 5 μL of luminogenic substrate. The substrate concentration is 40 μM for human recombinant SSAO, 40 μM for human recombinant MAO-A, and 4 μM for human recombinant MAO-B. The hSSAO and hMAO-A assays were conducted in the MAO-A reaction buffer in the kit, and the MAO-B assay was conducted in the MAO-B reaction buffer. Oxidation of the substrate was conducted for 1 hr, before the addition of detecting reagent according the manufacture's protocol. The IC50 value of the tested compounds was calculated by fitting the dose response curve using a 4-parameter non-linear regression routine.

recombinant hMAO-A = recombinant hMAO-A (Homo sapiens (Human), UniProt P21397); experiment: MAO-A activity assay (MAO-Glo assay kit); conditions: 40 μM substrate, 30 mins pre-incubation
recombinant hMAO-A, sequence (P21397 whole entry): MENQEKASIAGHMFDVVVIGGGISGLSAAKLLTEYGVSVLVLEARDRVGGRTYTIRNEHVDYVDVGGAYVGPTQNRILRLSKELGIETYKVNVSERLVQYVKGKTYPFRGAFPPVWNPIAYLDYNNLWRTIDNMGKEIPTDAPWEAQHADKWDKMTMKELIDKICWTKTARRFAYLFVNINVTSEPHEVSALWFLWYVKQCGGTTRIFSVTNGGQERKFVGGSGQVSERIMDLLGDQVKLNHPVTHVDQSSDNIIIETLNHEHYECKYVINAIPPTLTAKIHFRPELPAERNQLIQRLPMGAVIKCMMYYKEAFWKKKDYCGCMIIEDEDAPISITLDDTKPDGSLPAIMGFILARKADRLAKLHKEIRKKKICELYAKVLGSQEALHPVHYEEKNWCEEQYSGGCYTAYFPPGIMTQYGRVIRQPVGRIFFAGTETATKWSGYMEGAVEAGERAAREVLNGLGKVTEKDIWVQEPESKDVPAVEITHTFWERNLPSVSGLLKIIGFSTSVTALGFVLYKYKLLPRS
Experimental: as §1, §2

recombinant hMAO-B = recombinant hMAO-B (Homo sapiens (Human), UniProt P27338); experiment: MAO-B activity assay (MAO-Glo assay kit); conditions: 4 μM substrate, 30 mins pre-incubation
recombinant hMAO-B, sequence (P27338 whole entry): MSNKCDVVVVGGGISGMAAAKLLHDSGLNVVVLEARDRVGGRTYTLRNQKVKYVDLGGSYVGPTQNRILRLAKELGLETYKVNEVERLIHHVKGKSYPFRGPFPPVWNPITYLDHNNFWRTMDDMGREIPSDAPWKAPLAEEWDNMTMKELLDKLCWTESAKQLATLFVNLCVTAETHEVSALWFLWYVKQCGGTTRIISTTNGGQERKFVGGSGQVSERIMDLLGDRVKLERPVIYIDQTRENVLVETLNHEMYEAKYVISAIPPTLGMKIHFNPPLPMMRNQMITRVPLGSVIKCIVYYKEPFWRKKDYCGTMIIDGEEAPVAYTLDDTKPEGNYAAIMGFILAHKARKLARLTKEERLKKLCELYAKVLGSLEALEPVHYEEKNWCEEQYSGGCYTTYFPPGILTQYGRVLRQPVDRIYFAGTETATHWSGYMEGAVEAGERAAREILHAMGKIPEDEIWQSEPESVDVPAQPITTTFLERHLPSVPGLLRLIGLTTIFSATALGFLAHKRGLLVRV
Experimental: as §1, §2

recombinant hSSAO, sequence (Q16853 whole entry, canonical isoform): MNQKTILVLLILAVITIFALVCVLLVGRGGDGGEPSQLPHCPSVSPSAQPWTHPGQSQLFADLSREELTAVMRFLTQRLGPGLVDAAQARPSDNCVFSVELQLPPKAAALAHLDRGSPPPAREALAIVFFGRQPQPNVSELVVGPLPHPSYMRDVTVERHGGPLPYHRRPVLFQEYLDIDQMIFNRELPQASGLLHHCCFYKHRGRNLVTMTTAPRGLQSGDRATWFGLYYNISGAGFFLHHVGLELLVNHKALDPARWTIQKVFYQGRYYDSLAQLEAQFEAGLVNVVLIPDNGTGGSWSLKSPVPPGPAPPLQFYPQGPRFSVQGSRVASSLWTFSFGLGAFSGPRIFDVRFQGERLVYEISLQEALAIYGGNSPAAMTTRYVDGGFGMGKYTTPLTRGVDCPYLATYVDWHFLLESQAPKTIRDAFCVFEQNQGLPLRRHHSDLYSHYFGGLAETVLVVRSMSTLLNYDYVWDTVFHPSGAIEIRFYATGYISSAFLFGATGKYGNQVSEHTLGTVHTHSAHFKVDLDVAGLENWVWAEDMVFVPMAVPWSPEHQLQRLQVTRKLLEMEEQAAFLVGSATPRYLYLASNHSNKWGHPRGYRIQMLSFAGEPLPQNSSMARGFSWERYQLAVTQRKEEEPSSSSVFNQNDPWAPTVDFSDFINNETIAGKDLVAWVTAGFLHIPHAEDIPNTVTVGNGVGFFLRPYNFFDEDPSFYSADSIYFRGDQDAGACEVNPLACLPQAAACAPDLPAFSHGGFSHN

Compound | pIC50 (recombinant hSSAO) | pIC50 (recombinant hMAO-A) | pIC50 (recombinant hMAO-B)
CC1(C)CC(=O)N(CS(=O)(=O)c2ccc(OC/C(=C/F)CN)cc2)C1 [Compound 126, (E)-1-(((4-((2-(aminomethyl)-3-fluoroallyl)oxy)phenyl)sulfonyl)methyl)-4,4-dimethylpyrrolidin-2-one] | 6.30 to 7.00 | < 4.52 | 4.52 to 5.00
CC(CN1CCOCC1)CS(=O)(=O)c1ccc(OC/C(=C/F)CN)cc1F (stereo not shown) [Compound 114, (E)-3-fluoro-2-((3-fluoro-4-((2-methyl-3-morpholinopropyl)sulfonyl)phenoxy)methyl)prop-2-en-1-amine] | 7.00 to 7.70 | < 4.52 | < 4.52
CN(C(=O)C12CCC(CS(=O)(=O)c3ccc(OC/C(=C/F)CN)cc3)(CC1)CC2)C1CC1 [Compound 73, (E)-4-(((4-((2-(aminomethyl)-3-fluoroallyl)oxy)phenyl)sulfonyl)methyl)-N-cyclopropyl-N-methylbicyclo[2.2.2]octane-1-carboxamide] | 7.00 to 7.70 | < 4.52 | < 4.52
CC(C)C(=O)N(C)CS(=O)(=O)c1ccc(OC/C(=C/F)CN)cc1 [Compound 122, (E)-N-(((4-((2-(aminomethyl)-3-fluoroallyl)oxy)phenyl)sulfonyl)methyl)-N-methylisobutyramide] | 7.00 to 7.70 | < 4.52 | > 5.00
COCS(=O)(=O)c1ccc(OC/C(=C/F)CN)cc1 [compound 28, (E)-3-fluoro-2-((4-((methoxymethyl)sulfonyl)phenoxy)methyl)prop-2-en-1-amine] | – | – | 4.52 to 5.00
NC/C(=C\F)COc1ccc(S(=O)(=O)Cc2ccc(C(=O)NC3CCC3)c(C(F)(F)F)c2)cc1 [compound 89, (E)-4-(((4-((2-(aminomethyl)-3-fluoroallyl)oxy)phenyl)sulfonyl)methyl)-N-cyclobutyl-2-(trifluoromethyl)benzamide] | 6.30 to 7.00 | – | 4.52 to 5.00
CCN(CC(C)(C)CS(=O)(=O)c1ccc(OC/C(=C/F)CN)cc1)C(=O)C(C)C [compound 98, (E)-N-(3-((4-((2-(aminomethyl)-3-fluoroallyl)oxy)phenyl)sulfonyl)-2,2-dimethylpropyl)-N-ethylisobutyramide] | 7.00 to 7.70 | – | 4.52 to 5.00
NC/C(=C\F)COc1ccc(S(=O)(=O)CC23CCC(C4(O)CC4)(CC2)CC3)cc1 [compound 18, (E)-1-(4-(((4-((2-(aminomethyl)-3-fluoroallyl)oxy)phenyl)sulfonyl)methyl)bicyclo[2.2.2]octan-1-yl)cyclopropan-1-ol] | – | – | 4.52 to 5.00
CC1(C(=O)N2CCN(CS(=O)(=O)c3ccc(OC/C(=C/F)CN)cc3)C(=O)C2)CCC1 [compound 134, (E)-1-(((4-((2-(aminomethyl)-3-fluoroallyl)oxy)phenyl)sulfonyl)methyl)-4-(1-methylcyclobutane-1-carbonyl)piperazin-2-one] | 6.30 to 7.00 | 4.52 to 5.00 | –
CC(C)(C)C(=O)N1CCN(CS(=O)(=O)c2ccc(OC/C(=C/F)CN)cc2)C(=O)C1 [compound 133, (E)-1-(((4-((2-(aminomethyl)-3-fluoroallyl)oxy)phenyl)sulfonyl)methyl)-4-pivaloylpiperazin-2-one] | 6.30 to 7.00 | 4.52 to 5.00 | –
CC1(CS(=O)(=O)c2ccc(OC/C(=C/F)CN)cc2)CCN(C(=O)C2(C)CC2)CC1 [compound 57, (E)-(4-(((4-((2-(aminomethyl)-3-fluoroallyl)oxy)phenyl)sulfonyl)methyl)-4-methylpiperidin-1-yl)(1-methylcyclopropyl)methanone] | 7.00 to 7.70 | 4.52 to 5.00 | –
CC(C)C(=O)N1CCC(CS(=O)(=O)c2ccc(OC/C(=C/F)CN)cc2)C1 (stereo not shown) [compound 99, (E)-1-(3-(((4-((2-(aminomethyl)-3-fluoroallyl)oxy)phenyl)sulfonyl)methyl)pyrrolidin-1-yl)-2-methylpropan-1-one] | 7.00 to 7.70 | 4.52 to 5.00 | –
NC/C(=C\F)COc1ccc(S(=O)(=O)CC2CCOCC2)c(Cl)c1 [compound 8, (E)-2-((3-chloro-4-(((tetrahydro-2H-pyran-4-yl)methyl)sulfonyl)phenoxy)methyl)-3-fluoroprop-2-en-1-amine] | 7.00 to 7.70 | 4.52 to 5.00 | –
NC/C(=C\F)COc1ccc(S(=O)(=O)CC23CCC(NC(=O)C4CC4)(CC2)CC3)cc1 [compound 76, (E)-N-(4-(((4-((2-(aminomethyl)-3-fluoroallyl)oxy)phenyl)sulfonyl)methyl)bicyclo[2.2.2]octan-1-yl)cyclopropanecarboxamide] | – | – | 4.52 to 5.00
NC/C(=C\F)COc1ccc(S(=O)(=O)CC23CCC(O)(CC2)CC3)cc1 [compound 17, (E)-4-(((4-((2-(aminomethyl)-3-fluoroallyl)oxy)phenyl)sulfonyl)methyl)bicyclo[2.2.2]octan-1-ol] | 7.00 to 7.70 | – | 4.52 to 5.00
NC/C(=C\F)COc1ccc(S(=O)(=O)CC2CCN(C(=O)C34CC(F)(C3)C4)CC2)cc1 [compound 40, (E)-(4-(((4-((2-(aminomethyl)-3-fluoroallyl)oxy)phenyl)sulfonyl)methyl)piperidin-1-yl)(3-fluorobicyclo[1.1.1]pentan-1-yl)methanone] | 7.00 to 7.70 | 4.52 to 5.00 | –
CC(C)(C)C(=O)NC12CCC(CS(=O)(=O)c3ccc(OC/C(=C/F)CN)cc3)(CC1)C2 [compound 145, (E)-N-(4-(((4-((2-(aminomethyl)-3-fluoroallyl)oxy)phenyl)sulfonyl)methyl)bicyclo[2.2.1]heptan-1-yl)pivalamide] | 7.00 to 7.70 | – | 4.52 to 5.00
CC1CCN(C23CCC(CS(=O)(=O)c4ccc(OC/C(=C/F)CN)cc4)(CC2)CC3)C1=O (stereo not shown) [compound 83, (E)-1-(4-(((4-((2-(aminomethyl)-3-fluoroallyl)oxy)phenyl)sulfonyl)methyl)bicyclo[2.2.2]octan-1-yl)-3-methylpyrrolidin-2-one] | – | – | 4.52 to 5.00
N#CC1(CS(=O)(=O)c2ccc(OC/C(=C/F)CN)cc2)CCOCC1 [compound 12, (E)-4-(((4-((2-(aminomethyl)-3-fluoroallyl)oxy)phenyl)sulfonyl)methyl)tetrahydro-2H-pyran-4-carbonitrile] | 7.00 to 7.70 | 4.52 to 5.00 | –
NC/C(=C\F)COc1ccc(S(=O)(=O)CC23CCC(C(=O)NC4CCC4)(CC2)CC3)cc1 [compound 64, (E)-4-(((4-((2-(aminomethyl)-3-fluoroallyl)oxy)phenyl)sulfonyl)methyl)-N-cyclobutylbicyclo[2.2.2]octane-1-carboxamide] | – | – | 4.52 to 5.00
NC/C(=C\F)COc1ccc(S(=O)(=O)COCC2CCN(C(=O)C3(C(F)(F)F)CC3)CC2)cc1 [compound 35, (E)-(4-((((4-((2-(aminomethyl)-3-fluoroallyl)oxy)phenyl)sulfonyl)methoxy)methyl)piperidin-1-yl)(1-(trifluoromethyl)cyclopropyl)methanone] | 7.00 to 7.70 | – | 4.52 to 5.00
CC(C)C(=O)N(C)CC(C)(C)CS(=O)(=O)c1ccc(OC/C(=C/F)CN)cc1 [compound 96, (E)-N-(3-((4-((2-(aminomethyl)-3-fluoroallyl)oxy)phenyl)sulfonyl)-2,2-dimethylpropyl)-N-methylisobutyramide] | – | – | 4.52 to 5.00
NC/C(=C\F)COc1ccc(S(=O)(=O)CC23CCC(C4(NC(=O)C5CC5)CC4)(CC2)CC3)cc1 [compound 16, (E)-N-(1-(4-(((4-((2-(aminomethyl)-3-fluoroallyl)oxy)phenyl)sulfonyl)methyl)bicyclo[2.2.2]octan-1-yl)cyclopropyl) cyclopropanecarboxamide] | 7.00 to 7.70 | – | –
